Source: patent US20250108019A1, “USE OF LACTIC ACID IN PRODUCT FOR REGULATING AND PROMOTING TISSUE GROWTH” (CHANGCHUN SINOBIOMATERIALS CO., LTD., priority 2022, published 2025)

What was measured:
sciatic nerve [1] = assay: Sciatic function index (SFI) after sciatic nerve clamp injury; assay type: in vivo, mice; conditions: 0.1 ml of 50 mmol/L intraperitoneal
Method: Experimental animals: Male experimental mice weighing 30˜35 g were selected and divided into 3 groups, with 26 mice in each group. Experimental site: The sciatic nerve of mice was selected. Experimental groups: ? model group (injury caused by sciatic nerve clamp injury); ? treatment group (after injuried by sciatic nerve clamp, 0.1 ml of 50 mmol/L aqueous lactic acid solution was given by intraperitoneal injection each time); and ? sham group (only the sciatic nerve was freed). Experimental procedure: The treatment group was given medication for 14 consecutive days, and the model group and sham group were given an equal amount of 0.9% sodium chloride injection. • (1) The functional recovery of the sciatic nerve of mice after injury was tracked and evaluated by using the sciatic function index (SFI) at 7 and 14 days after surgery. […] The footprints of the left injured side (E) and the right normal side (N) of the experimental mice were measured. The footprint length (PL), the distance from the first toe to the fifth toe (TS), and the distance from the second toe to the fourth toe (IT) were recorded and put into the formula for calculation. […] The formula is as follows: SFI=109.5(ETS−NTS)/NTS−38.3(EPL−NPL)/NPL+13.3(EIT−NIT)/NIT−8.8 • (2) The degree of toe spread on the injured side was recorded at 3, 7, and 14 days after surgery. […]

tendon—Achilles tendon = assay: Tendon diameter after local injection in mice (Sirius red, 100× optical microscope); assay type: in vivo; conditions: for Tendon measured value, mean: 0.1 ml injection daily, experimental side
Text: (§1) Experimental animals: Male experimental mice weighing 23±4 g were selected and divided into several groups, with 10 mice in each group. Experimental site: Different tissue sites of mice were selected for the test, specifically muscle—rectus femoris, tendon—Achilles tendon, cartilage—ear cartilage tissue. Experimental group: ? 25 mmol/L aqueous lactic acid solution • ? 50 mmol/L aqueous lactic acid solution • ? 75 mmol/L aqueous lactic acid solution and • ? 0.9% sodium chloride injection Experimental procedure: The right side of the experimental mouse was the experimental side (injected with lactic acid solutions at different concentrations), and the left side was the control side (injected with 0.9% sodium chloride injection). The experiment started with a single injection of 0.1 ml of the corresponding experimental solution at the experimental side every day from 1 to 7 days. […] The experimental and control sides of each mouse were selected for fixation and pathological histological examination. • 1) The tissue to be observed was cut and fixed, and then stained with Sirius red to observe the effects of the injection solution on the tissues at various sites. • 2) The experimental side and the control side were randomly selected for sectioning, the diameter of each tissue was measured under a 100× optical microscope, and the average value of the experimental side and the control side was calculated using the following formula: [formula] The diameters on both sides were compared, and the effects of the lactic acid solution on each tissue site were analyzed using the SSPS 21 calculation results.

[2] = test system: cartilage—ear cartilage tissue; assay: Ear cartilage diameter after local injection in mice (Sirius red, 100× optical microscope); assay type: in vivo; conditions: 50 mmol/L; for Ear cartilage tissue measured value, mean: 0.1 ml injection daily, experimental side
Text: as §1

sciatic nerve [3] = assay: Toe spread score after sciatic nerve clamp injury; assay type: in vivo, mice; conditions: 0.1 ml of 50 mmol/L intraperitoneal
Method: Experimental animals: Male experimental mice weighing 30˜35 g were selected and divided into 3 groups, with 26 mice in each group. Experimental site: The sciatic nerve of mice was selected. Experimental groups: ? model group (injury caused by sciatic nerve clamp injury); ? treatment group (after injuried by sciatic nerve clamp, 0.1 ml of 50 mmol/L aqueous lactic acid solution was given by intraperitoneal injection each time); and ? sham group (only the sciatic nerve was freed). Experimental procedure: The treatment group was given medication for 14 consecutive days, and the model group and sham group were given an equal amount of 0.9% sodium chloride injection. […] The evaluation grades are classified as scores 0˜3, with no spread being score 0 and full spread being score 3.

muscle—rectus femoris = assay: Muscle tissue diameter after local injection in mice (Sirius red, 100× optical microscope); assay type: in vivo; conditions: for Muscle tissue measured value, mean: 0.1 ml injection daily, experimental side
Text: as §1

CC(O)C(=O)O (centres unmarked) [lactic acid] was tested. Which SFI score (sciatic nerve [1]; 7 days after surgery, FIG. 7) did it give?
Its SFI score is “significantly lower than those in the sham group”.

And the SFI score (sciatic nerve [1]; 14 days after surgery, P<0.01, FIG. 7)?
The SFI score was “significantly increased”.

And the “Tendon measured value, mean” value (tendon—Achilles tendon; 25 mmol/L, 3 days, * P<0.05 vs control)?
The value was 853.9* μm.

What about the “Tendon measured value, mean” value (tendon—Achilles tendon; 25 mmol/L, 14 days) of the same molecule?
Its value is 877.1 μm.

And the “Tendon measured value, mean” value (tendon—Achilles tendon; 25 mmol/L, 21 days)?
Its value is 438.3 μm.

What about the “Achilles tendon on the experimental side, histological observation” value (“Achilles tendon … histological observation” below) (tendon—Achilles tendon; 25 mmol/L, 3 days after injection, FIG. 3) of the same molecule?
Its value is “significantly thickened”.

And the “Tendon measured value, mean” value (tendon—Achilles tendon; 50 mmol/L, 3 days)?
The value was 484.6 μm.

And the “Tendon measured value, mean” value (tendon—Achilles tendon; 50 mmol/L, 7 days)?
Its value is 547.8 μm.

What about the “Tendon measured value, mean” value (tendon—Achilles tendon; 50 mmol/L, 14 days, * P<0.05 vs control) of the same molecule?
The value was 769.5* μm.

And the “Tendon measured value, mean” value (tendon—Achilles tendon; 50 mmol/L, 21 days)?
Its value is 543.9 μm.

What about the “Achilles tendon … histological observation” value (tendon—Achilles tendon; 50 mmol/L, Day 14, FIG. 4) of the same molecule?
The value was “significantly thickened”.

And the “Tendon measured value, mean” value (tendon—Achilles tendon; 75 mmol/L, 3 days, * P<0.05 vs control)?
The value was 970.9* μm.

And the “Tendon measured value, mean” value (tendon—Achilles tendon; 75 mmol/L, 7 days, * P<0.05 vs control)?
The value was 832.2* μm.

And the “Tendon measured value, mean” value (tendon—Achilles tendon; 75 mmol/L, 14 days)?
The value was 578.2 μm.

And the “Tendon measured value, mean” value (tendon—Achilles tendon; 75 mmol/L, 21 days, * P<0.05 vs control)?
Its value is 970.1* μm.

And the “Achilles tendon … histological observation” value (tendon—Achilles tendon; 75 mmol/L, Day 3, 7, and 21, FIG. 5)?
Its value is “significantly thickened”.

What about the “Ear cartilage tissue measured value, mean” value (from here on “Ear cartilage tissue”) ([2]; 3 days) of the same molecule?
Its value is 158.8 μm.

And the “Ear cartilage tissue” value ([2]; 7 days)?
The value was 237.3 μm.

And the “Ear cartilage tissue” value ([2]; 14 days)?
The value was 170.3 μm.

What about the “Ear cartilage tissue” value ([2]; 21 days, * P<0.05 vs control side) of the same molecule?
The value was 253.5* μm.

What about the “Cross-section of the ear cartilage on the experimental side, histological observation” value ([2]; Day 21, FIG. 6) of the same molecule?
The value was “significantly thickened”.

What about the “Toe spread score (0~3)” value (sciatic nerve [3]; 3 days after surgery) of the same molecule?
The value was 0 ± 0.4.

And the “Toe spread score (0~3)” value (sciatic nerve [3]; 7 days after surgery)?
The value was 0.9 ± 0.6.

What about the “Toe spread score (0~3)” value (sciatic nerve [3]; 10 days after surgery) of the same molecule?
Its value is 2 ± 0.3.

And the “Toe spread score (0~3)” value (sciatic nerve [3]; 14 days after surgery)?
Its value is 2.5 ± 0.5.

What about the “Muscle tissue measured value, mean” value (muscle—rectus femoris; 25 mmol/L, 3 days) of the same molecule?
Its value is 64.13 μm.

What about the “Muscle tissue measured value, mean” value (muscle—rectus femoris; 25 mmol/L, 7 days) of the same molecule?
Its value is 79.66 μm.

What about the “Muscle tissue measured value, mean” value (muscle—rectus femoris; 25 mmol/L, 14 days, * P<0.05 vs control side) of the same molecule?
The value was 123.8* μm.

And the “Muscle tissue measured value, mean” value (muscle—rectus femoris; 25 mmol/L, 21 days)?
Its value is 112.1 μm.

What about the “Muscle tissue on the experimental side, histological observation” value (muscle—rectus femoris; 25 mmol/L, 14 days, FIG. 1) of the same molecule?
Its value is “significantly thickened”.

What about the “Muscle tissue measured value, mean” value (muscle—rectus femoris; 50 mmol/L, 3 days) of the same molecule?
Its value is 73.49 μm.

What about the “Muscle tissue measured value, mean” value (muscle—rectus femoris; 50 mmol/L, 7 days, ** P<0.01 vs control side) of the same molecule?
The value was 69.14** μm.

What about the “Muscle tissue measured value, mean” value (muscle—rectus femoris; 50 mmol/L, 14 days, * P<0.05 vs control side) of the same molecule?
The value was 119.5* μm.

What about the “Muscle tissue measured value, mean” value (muscle—rectus femoris; 50 mmol/L, 21 days) of the same molecule?
The value was 111.9 μm.

What about the “Muscle tissue on the experimental side, histological observation” value (muscle—rectus femoris; 50 mmol/L, 7 days, FIG. 2) of the same molecule?
The value was “significantly thickened”.
